Legend:
[1] = tested on: H4IIE rat hepatoma cells; assay: In vitro gluconeogenesis: glucose production; type: cell-based; conditions: HII4E liver cells; for IC50: range of 5 concentrations; for activity on glucose production relative to SF: same concentrations
Experimental: H4IIE rat hepatoma cells (CRL-1548, American Type Culture Collection, Manassas, Va.) were assayed for glucose production as previously described (21). Cell viability was measured by the 3-(4,5-Dimethyl-2-thiazolyl)-2,5-diphenyltetrazolium bromide (MTT; TCI, Portland, Oreg.) assay (22). RNA extraction, cDNA synthesis and qPCR for gene expression of PEPCK and G6P were performed as described above.

[2] = Compound stability of MICs in moringa extract stored at 37° C.; type: physicochemical; conditions: 37° C. for 30 days, compared to day 0
[3] = rotoevaporation 1 hour at 50° C., compared to freeze-dried samples
Excerpt: Drying the 1:5 ratio preparations can be achieved by rotoevaporation, followed by freeze-drying or spray drying. […] Further concentration of MICs and removal of sugars from the extract can also be performed with solid phase-extraction (SPE).

[4] = tested on: iNOS; assay: LPS-induced iNOS gene expression in RAW 264.7 macrophages; type: cell-based; conditions: 1 and 5 μM; RAW 264.7, LPS
Experimental: (§1) All reagents were supplied from Sigma-Aldrich Co. (St. Louis, Mo.) unless otherwise noted. RAW 264.7 macrophages (ATCC TIB-71) were maintained in Dulbecco's modified Eagle's medium (Caisson, North Logan, Utah) supplemented with 100 U/mL penicillin, 100 μg/mL streptomycin, and 10% fetal bovine serum. Cells were incubated at 37° C. in a 5% CO2 humidified atmosphere and subcultured by cell scraping. For experiments, RAW cells were plated at a density of 4×10^5 cells/mL in 24-well plates. Cells were incubated overnight (18 h), washed with warm 37° C. PBS, and medium was replaced fresh DMEM medium. […] Lipopolysaccharide (1 μg/mL) was added after 2 h incubation with treatments to elicit inflammatory responses. Cells were treated in duplicate or triplicate. After an additional 6 h incubation period, media were collected and cells were washed with PBS prior to collection in TRIzol® Reagent (Ambion, Life Technologies). […]
(§2) Total RNA was extracted from cells according to manufacturer's specifications. […] RNA integrity was evaluated by running about 1 μg of RNA on a 1% agarose gel. […]
(§3) Quantitative PCR amplifications were performed on an ABI 7300 Real-Time PCR System (Applied Biosystems) with the following thermal cycler profile: 2 minutes, 50° C.; 10 minutes, 95° C.; 15 seconds, 95° C.; 1 minute, 60° C. for the dissociation stage; 15 seconds, 95° C.; 1 minutes, 60° C.; and 15 seconds, 95° C. […]

[5] = tested on: IL-1β; assay: LPS-induced IL-1β gene expression in RAW 264.7 macrophages; type: cell-based; conditions: 1 and 5 μM; RAW 264.7, LPS
Experimental: as §1, §2, §3

[6] = tested on: IL-6; assay: LPS-induced IL-6 gene expression in RAW 264.7 macrophages; type: cell-based; conditions: 5 μM; RAW 264.7, LPS
Experimental: as §1, §2, §3

[7] = tested on: TNF-α; assay: LPS-induced TNF-α gene expression in RAW 264.7 macrophages; type: cell-based; conditions: any of the concentrations tested; RAW 264.7, LPS
Experimental: as §1, §2, §3

[8] = tested on: TNF-α; assay: TNF-α secretion analysis (ELISA) in RAW 264.7 macrophages; type: cell-based, Mouse; conditions: 5 μM
Experimental: (§4) All reagents were supplied from Sigma-Aldrich Co. (St. Louis, Mo.) unless otherwise noted. RAW 264.7 macrophages (ATCC TIB-71) were maintained in Dulbecco's modified Eagle's medium (Caisson, North Logan, Utah) supplemented with 100 U/mL penicillin, 100 μg/mL streptomycin, and 10% fetal bovine serum. Cells were incubated at 37° C. in a 5% CO2 humidified atmosphere and subcultured by cell scraping. For experiments, RAW cells were plated at a density of 4×10^5 cells/mL in 24-well plates. Cells were incubated overnight (18 h), washed with warm 37° C. PBS, and medium was replaced fresh DMEM medium. […] Lipopolysaccharide (1 μg/mL) was added after 2 h incubation with treatments to elicit inflammatory responses. Cells were treated in duplicate or triplicate. After an additional 6 h incubation period, media were collected and cells were washed with PBS prior to collection in TRIzol® Reagent (Ambion, Life Technologies). Samples were stored at −80° C. prior to processing.
After treatments, 1 mL of media was collected and immediately centrifuged at 13,500 g at 4° C. for 10 minutes. The supernatant was preserved at −80° C. until further processing with the BD OptEIATM Mouse TNF ELISA kit (BD Bioscience, San Jose, Calif.) following the manufacturer's protocol. […] TNF-α levels were quantified using a reference standard curve provided with the kit. Absorbance was read at 450 nm and corrected at 570 nm.

[9] = tested on: Nitric oxide (NO); assay: Nitric oxide production analysis (Griess) in RAW 264.7 macrophages; type: cell-based; conditions: 5 μM
Experimental: as §4
After treatments, 1 mL of media was collected and assayed in duplicate following the Griess Reagent System provided by Promega (Promega Corporation; Madison, Wis.). The nitrite standard (0.1 M sodium nitrite) reference curve was built performing a serial dilution (0 to 100 μM). Absorbance was read at 540 nm.

[10] = tested on: RAW 264.7 macrophages; assay: MTT-based cell viability assay; conditions: concentrations tested in anti-inflammatory assays
Experimental: The effect of the treatments on cell viability was measured using MTT [3-(4,5-dimethyl-2-thiazolyl)-2,5-diphenyltetrazolium bromide] (TCI, Portland, Oreg.) (Mosmann, 1983). MTT (5 mg/mL) was dissolved in PBS (Cayman Chemical, Ann Arbor, Mich.), filtered through a 0.22 μm membrane and added to treated cells during the last 3-4 hours of treatment. Media were carefully aspirated and cells were dissolved in DMSO. The absorbance was read at 570 nm.

[11] = tested on: NO formation; conditions: Cheenpracha et al., 2010; read-out: NO inhibition IC50; cited from earlier work
[12] = after 6 days at 37° C.; Franklin et al., 2013; cited from earlier work

Row | SMILES | IC50 ([1]; Rattus norvegicus) | degradation of MIC in moringa extract [2] | loss of MIC under rotoevaporation conditions [3] | mRNA expression of iNOS [4] | mRNA expression of IL-1β [5] | IL-6 gene expression [6] | TNF-α gene expression [7] | reduction of TNF-α production [8] | NO formation [9] | cytotoxicity (MTT cell viability) [10] | activity on glucose production relative to SF [1] | IC50 [11] | IC50 [1] | degradation of SF [12]
1 | CN(C)C(=N)N=C(N)N [metformin, reference compound] | 800 µM | – | – | – | – | – | – | – | – | – | – | – | – | –
2 | C[C@@H]1O[C@@H](Oc2ccc(CN=C=S)cc2)[C@H](O)[C@H](O)[C@H]1O [MIC-1, 4-[(α-L-rhamnosyloxy)benzyl] isothiocyanate] | – | approximately 80% | No significant loss | significant reduction | significant reduction | decrease IL-6 gene expression significantly | no reduction | 20% | inhibited NO formation | no signs of cytotoxicity | superior activity to SF | 14.4 µM | – | –
3 | CC(=O)O[C@@H]1[C@@H](O)[C@@H](O)[C@H](Oc2ccc(CN=C=S)cc2)O[C@H]1C [MIC-4, 4-[(4′-O-acetyl-α-L-rhamnosyloxy)benzyl] isothiocyanate] | – | ~20% | No significant loss | significant reduction | significant reduction | – | no reduction | 27% | inhibited NO formation | no signs of cytotoxicity | superior activity to SF | 2.71 µM | 7 µM | –
4 | C[S+]([O-])CCCCN=C=S (stereo not drawn) [SF, sulforaphane] | – | – | – | – | – | – | – | – | – | – | – | – | – | 75%
